Laboratory results taken from publication PMC12615753, “Glutathione as a taste modulator: molecular mechanisms of interaction with umami and sweet taste receptors” (Food Chemistry: Molecular Sciences, 2025).

Target: T1, hTAS1R1 D147A/rTAS1R3 (UniProt Q7RTX1+Q923K1, D147A)
T1 construct: UniProtKB number Q7RTX1–1); The cDNA coding region of rTAS1R3 was synthesized with optimized-codon usage for human expression; expressed in transfected cells; host or cells: HEK293T/17
T1 sequence (Q7RTX1 21-841 D147A): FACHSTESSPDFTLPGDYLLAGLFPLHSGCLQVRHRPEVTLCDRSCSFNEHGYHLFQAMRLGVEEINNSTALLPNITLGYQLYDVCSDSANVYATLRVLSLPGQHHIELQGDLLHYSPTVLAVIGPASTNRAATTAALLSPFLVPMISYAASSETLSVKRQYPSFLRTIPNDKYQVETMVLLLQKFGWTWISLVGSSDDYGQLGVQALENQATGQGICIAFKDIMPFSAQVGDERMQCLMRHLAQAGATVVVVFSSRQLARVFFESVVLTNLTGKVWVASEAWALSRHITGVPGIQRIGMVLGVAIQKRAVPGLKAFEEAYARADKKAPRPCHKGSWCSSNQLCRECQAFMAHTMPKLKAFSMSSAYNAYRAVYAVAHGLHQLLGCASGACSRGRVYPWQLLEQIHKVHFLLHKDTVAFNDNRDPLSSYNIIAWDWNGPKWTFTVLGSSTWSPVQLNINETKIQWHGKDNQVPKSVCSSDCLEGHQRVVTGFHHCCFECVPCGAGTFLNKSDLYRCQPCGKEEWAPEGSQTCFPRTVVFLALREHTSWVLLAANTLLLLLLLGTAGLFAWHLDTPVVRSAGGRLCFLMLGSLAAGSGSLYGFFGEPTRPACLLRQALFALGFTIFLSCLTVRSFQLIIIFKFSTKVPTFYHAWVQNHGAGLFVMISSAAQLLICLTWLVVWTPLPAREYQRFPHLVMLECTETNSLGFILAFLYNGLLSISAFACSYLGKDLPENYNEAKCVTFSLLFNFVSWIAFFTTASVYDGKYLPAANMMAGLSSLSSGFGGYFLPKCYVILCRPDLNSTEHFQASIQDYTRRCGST
T1 sequence (Q923K1 21-858): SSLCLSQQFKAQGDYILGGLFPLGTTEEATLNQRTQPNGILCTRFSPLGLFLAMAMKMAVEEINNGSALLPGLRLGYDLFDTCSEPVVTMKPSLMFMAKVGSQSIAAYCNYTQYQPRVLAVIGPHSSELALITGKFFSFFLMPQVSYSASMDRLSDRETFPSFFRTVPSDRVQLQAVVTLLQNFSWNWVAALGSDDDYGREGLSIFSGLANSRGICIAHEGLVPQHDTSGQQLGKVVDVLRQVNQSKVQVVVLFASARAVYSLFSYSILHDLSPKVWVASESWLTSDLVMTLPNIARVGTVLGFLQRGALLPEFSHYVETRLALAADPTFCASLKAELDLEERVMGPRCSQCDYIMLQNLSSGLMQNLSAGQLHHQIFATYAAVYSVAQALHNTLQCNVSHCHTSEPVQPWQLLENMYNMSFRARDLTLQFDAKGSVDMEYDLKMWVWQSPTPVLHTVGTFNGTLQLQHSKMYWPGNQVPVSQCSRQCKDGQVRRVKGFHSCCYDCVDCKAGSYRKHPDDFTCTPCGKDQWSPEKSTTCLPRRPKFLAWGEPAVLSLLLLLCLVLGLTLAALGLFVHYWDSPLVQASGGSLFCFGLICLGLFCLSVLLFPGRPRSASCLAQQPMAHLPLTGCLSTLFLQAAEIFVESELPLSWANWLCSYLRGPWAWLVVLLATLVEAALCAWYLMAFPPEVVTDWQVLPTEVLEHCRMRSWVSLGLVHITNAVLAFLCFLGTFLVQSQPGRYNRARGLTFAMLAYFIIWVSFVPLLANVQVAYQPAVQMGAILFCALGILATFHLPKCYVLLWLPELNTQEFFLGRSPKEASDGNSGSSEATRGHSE
Assay: Calcium assay, hTAS1R1 mutant co-expressed with rTAS1R3
Assay type: cell-based, human, rat

Compound | EC50 [mM] | effect of the added compound (1 mM) on the response to L-Glu (D147A) | response to the agonist alone, vs WT (D147A)
N[C@@H](CCC(=O)N[C@@H](CS)C(=O)NCC(=O)O)C(=O)O [GSH, γ-L-glutamyl-L-cysteinyl-glycine] | > 30 | did not affect | fully abolished
CCCC(CCC)NC(=O)c1ccc2c(c1)OCO2 [S807, N-(heptan-4-yl)benzo[d][1,3]dioxole-5-carboxamide, reference compound] |  |  | strongly affected
